Measurements from ChEMBL document CHEMBL5352392, “Design, synthesis, and biological evaluation of novel dual inhibitors of heat shock protein 90/mammalian target of rapamycin (Hsp90/mTOR) against bladder cancer cells” (Eur J Med Chem, 2022).
Calls of active or inactive are those of the source. The rule behind the calls is not given here.

Tests used:
SW780 [1] = experiment: Upregulation of cleaved caspase-3 level in human SW780 cells at 0.2 to 0.5 uM by Western blot analysis; format: functional, cell-based; conditions: dose 0.2-0.5 µM
SW780 [2] = experiment: Upregulation of Hsp70 level in human SW780 cells by Western blot analysis; format: functional, cell-based; conditions: dose 0.2-0.5 µM
SW780 [3] = experiment: Upregulation of intracellular cathepsin B activity in human SW780 cells in presence of 3-MA; format: functional, cell-based
SW780 [4] = experiment: Downregulation of phosphorylated AKT level in human SW780 cells at 0.2 to 0.5 uM by Western blot analysis; format: functional, cell-based; conditions: dose 0.2-0.5 µM
SW780 [5] = experiment: Induction of autophagy in human SW780 cells assessed as formation of autophagic vacuoles in cytoplasm by TEM analysis; format: functional, cell-based
SW780 [6] = experiment: Downregulation of CDK4 level in human SW780 cells at 0.2 to 0.5 uM by Western blot analysis; format: functional, cell-based; conditions: dose 0.2-0.5 µM
J82 [7] = experiment: Antitumor activity against human J82 cells xenografted in nude Balb/c mouse assessed as tumor growth inhibition at 30 mg/kg, po administered everyday for 17 days; format: functional, organism-based; conditions: time 17.0 day
T-24 [8] = experiment: Antiproliferative activity against human T24 cells assessed as inhibition of cell proliferation by CCK8 assay; format: functional, cell-based
SW780 [9] = experiment: Downregulation of p62 level in human SW780 cells at 0.2 to 0.5 uM by Western blot analysis; format: functional, cell-based; conditions: dose 0.2-0.5 µM
J82 [10] = experiment: Antitumor activity against human J82 cells xenografted in nude Balb/c mouse assessed as decrease in mTOR phosphorylation level at 30 mg/kg, po administered everyday for 17 days by IHC analysis; format: functional, organism-based; conditions: time 17.0 day
SW780 [11] = experiment: Induction of apoptosis in human SW780 cells assessed as necrotic cells at 0.5 uM incubated for 24 hrs by Annexin V-FITC/PI staining based flow cytometry (reference value: 92.3 %); format: functional
[12] = target: Phosphatidylinositol 4,5-bisphosphate 3-kinase catalytic subunit alpha isoform (Homo sapiens, UniProt P42336); experiment: Inhibition of PI3Kalpha (unknown origin) by kinase profiling assay
Sequence of Phosphatidylinositol 4,5-bisphosphate 3-kinase catalytic subunit alpha isoform (P42336 whole entry, canonical isoform): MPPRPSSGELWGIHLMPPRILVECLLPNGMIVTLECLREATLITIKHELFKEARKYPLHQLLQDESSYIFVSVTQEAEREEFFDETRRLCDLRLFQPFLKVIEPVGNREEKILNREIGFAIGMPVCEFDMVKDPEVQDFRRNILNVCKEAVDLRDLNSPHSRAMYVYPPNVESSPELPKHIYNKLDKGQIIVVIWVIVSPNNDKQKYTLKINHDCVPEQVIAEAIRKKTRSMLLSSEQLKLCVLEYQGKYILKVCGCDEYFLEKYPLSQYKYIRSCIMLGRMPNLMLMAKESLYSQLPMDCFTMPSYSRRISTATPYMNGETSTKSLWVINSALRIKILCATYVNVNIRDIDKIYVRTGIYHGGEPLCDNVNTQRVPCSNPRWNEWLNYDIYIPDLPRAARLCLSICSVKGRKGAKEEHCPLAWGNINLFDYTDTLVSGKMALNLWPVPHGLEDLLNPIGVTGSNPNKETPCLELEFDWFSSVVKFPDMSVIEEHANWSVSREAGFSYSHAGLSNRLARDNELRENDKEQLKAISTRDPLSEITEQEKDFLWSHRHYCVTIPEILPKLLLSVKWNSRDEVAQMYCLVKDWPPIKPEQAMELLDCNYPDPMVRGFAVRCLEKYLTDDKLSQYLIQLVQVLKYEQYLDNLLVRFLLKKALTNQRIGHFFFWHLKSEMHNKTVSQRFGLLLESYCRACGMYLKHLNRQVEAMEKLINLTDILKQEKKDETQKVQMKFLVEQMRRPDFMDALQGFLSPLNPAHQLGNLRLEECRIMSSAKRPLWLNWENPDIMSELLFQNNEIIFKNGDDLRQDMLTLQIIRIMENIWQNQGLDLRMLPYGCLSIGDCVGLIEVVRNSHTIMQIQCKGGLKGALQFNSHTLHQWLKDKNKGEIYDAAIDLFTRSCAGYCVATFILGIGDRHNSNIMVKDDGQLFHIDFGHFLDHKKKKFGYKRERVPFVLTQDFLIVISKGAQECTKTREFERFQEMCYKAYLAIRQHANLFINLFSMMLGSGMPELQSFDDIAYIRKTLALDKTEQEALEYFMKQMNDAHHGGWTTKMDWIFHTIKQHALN

J82 [13] = experiment: Antitumor activity against human J82 cells xenografted in nude Balb/c mouse assessed as […] at 30 mg/kg, po administered everyday for 17 days by IHC analysis; format: functional, organism-based; conditions: time 17.0 day
J82 [14] = experiment: Antiproliferative activity against human J82 cells assessed as inhibition of cell proliferation at 1 uM by CCK8 assay relative to control; format: functional
SW780 [15] = experiment: Induction of apoptosis in human SW780 cells assessed as early apoptotic cells at 0.5 uM incubated for 24 hrs by Annexin V-FITC/PI staining based flow cytometry (reference value: 1.43 %); format: functional
SW780 [16] = experiment: Upregulation of intracellular cathepsin B activity in human SW780 cells in presence of Baf-A1; format: functional, cell-based
SW780 [17] = experiment: Induction of apoptosis in human SW780 cells assessed as early apoptotic cells at 0.2 uM incubated for 24 hrs by Annexin V-FITC/PI staining based flow cytometry (reference value: 1.43 %); format: functional
SW780 [18] = experiment: Downregulation of phosphorylated mTOR level in human SW780 cells at 0.2 to 0.5 uM by Western blot analysis; format: functional, cell-based; conditions: dose 0.2-0.5 µM
SW780 [19] = experiment: Upregulation of LC3-II level in human SW780 cells at 0.2 to 0.5 uM by Western blot analysis; format: functional, cell-based; conditions: dose 0.2-0.5 µM
SW780 [20] = experiment: Upregulation of cytochrome C level in human SW780 cells at 0.2 to 0.5 uM by Western blot analysis; format: functional, cell-based; conditions: dose 0.2-0.5 µM
T-24 [21] = experiment: Antiproliferative activity against human T24 cells assessed as inhibition of cell proliferation at 1 uM by CCK8 assay relative to control; format: functional
SW780 [22] = experiment: Induction of apoptosis in human SW780 cells assessed as late apoptotic cells at 0.5 uM incubated for 24 hrs by Annexin V-FITC/PI staining based flow cytometry (reference value: 2.30 %); format: functional
SW780 [23] = experiment: Induction of apoptosis in human SW780 cells assessed as viable cells at 0.2 uM incubated for 24 hrs by Annexin V-FITC/PI staining based flow cytometry (reference value: 92.3 %); format: functional; conditions: read-out: Activity
SW780 [24] = experiment: Induction of autophagy in human SW780 cells transfected with GFP-LC3 assessed as formation of autophagosomes incubated for 6 hrs in presence of 3-MA by laser scanning confocal microscopic analysis; format: functional, cell-based
SW780 [25] = experiment: Induction of autophagy in human SW780 cells transfected with GFP-LC3 assessed as formation of autophagosomes at 0.5 uM incubated for 24 hrs by laser scanning confocal microscopic analysis; format: functional, cell-based
[26] = Toxicity in nude Balb/c mouse xenografted with human J82 cells assessed as body weight reduction at 30 mg/kg, po administered everyday for 17 days; format: organism-based; conditions: in vivo, 408 h, time 17 day
SW780 [27] = experiment: Upregulation of intracellular cathepsin B activity in human SW780 cells; format: functional, cell-based
SW780 [28] = experiment: Downregulation of c-Raf level in human SW780 cells at 0.2 to 0.5 uM by Western blot analysis; format: functional, cell-based; conditions: dose 0.2-0.5 µM
Heat shock protein HSP90 [29] = target: T1, Heat shock protein HSP90 (Homo sapiens, UniProt P07900+P08238); experiment: Inhibition of Hsp90 (unknown origin) by TR-FRET assay; format: protein assay
[30] = target: T2, Serine/threonine-protein kinase mTOR (Homo sapiens, UniProt P42345); experiment: Inhibition of mTOR (unknown origin) by kinase profiling assay
SW780 [31] = experiment: Induction of autophagy in human SW780 cells transfected with GFP-LC3 assessed as formation of autophagosomes incubated for 6 hrs in presence of Baf-A1 by laser scanning confocal microscopic analysis; format: functional, cell-based
SW780 [32] = experiment: Antiproliferative activity against human SW780 cells assessed as inhibition of cell proliferation at 1 uM by CCK8 assay relative to control; format: functional
SW780 [33] = experiment: Induction of apoptosis in human SW780 cells assessed as necrotic cells at 0.2 uM incubated for 24 hrs by Annexin V-FITC/PI staining based flow cytometry (reference value: 92.3 %); format: functional
SW780 [34] = experiment: Antiproliferative activity against human SW780 cells assessed as inhibition of cell proliferation by CCK8 assay; format: functional, cell-based
[35] = target: T2, Serine/threonine-protein kinase mTOR; experiment: Inhibition of mTOR (unknown origin) at 100 nM by kinase profiling assay relative to control
SW780 [36] = experiment: Induction of apoptosis in human SW780 cells assessed as viable cells at 0.5 uM incubated for 24 hrs by Annexin V-FITC/PI staining based flow cytometry (reference value: 92.3 %); format: functional; conditions: read-out: Activity
J82 [37] = experiment: Antiproliferative activity against human J82 cells assessed as inhibition of cell proliferation by CCK8 assay; format: functional, cell-based
SW780 [38] = experiment: Antiproliferative activity against human SW780 cells assessed as cell survival at 0.5 uM measured after 72 hrs by CCK8 assay relative to control; format: functional; conditions: read-out: Activity
SW780 [39] = experiment: Induction of apoptosis in human SW780 cells assessed as late apoptotic cells at 0.2 uM incubated for 24 hrs by Annexin V-FITC/PI staining based flow cytometry (reference value: 2.30 %); format: functional
J82 [40] = experiment: Antitumor activity against human J82 cells xenografted in nude Balb/c mouse assessed as increase in LC3-II level at 30 mg/kg, po administered everyday for 17 days by IHC analysis; format: functional, organism-based; conditions: time 17.0 day
SW780 [41] = experiment: Downregulation of CDC2 level in human SW780 cells at 0.2 to 0.5 uM by Western blot analysis; format: functional, cell-based; conditions: dose 0.2-0.5 µM
Heat shock protein HSP90 [42] = target: T1, Heat shock protein HSP90; conditions: dose 100.0 nM
Description: Inhibition of Hsp90 (unknown origin) at 100 nM by TR-FRET assay relative to control

## CC(C)c1cc(C(=O)N2CCc3c(sc4nc(-c5ccc(NC(=O)Nc6ccc(F)c(Cl)c6)cc5)nc(N5CCOCC5)c34)C2)c(O)cc1O
SW780 [1]
  Activity: Active
SW780 [2]
  Activity: Dose-Dependent Effect
SW780 [3]
  Activity: inactive
SW780 [4]
  Activity: Active
SW780 [5]
  Activity: Active
SW780 [6]
  Activity: Active
J82 [7]
  inhibition: Active
T-24 [8]
  IC50: 410 nM
SW780 [9]
  Activity: Active
J82 [10]
  Activity: Active
SW780 [11]
  Activity: 2.31%
[12]
  IC50: 4980 nM
J82 [13]
  Activity: Active
J82 [14]
  inhibition at 1 µM: 79.3%
SW780 [15]
  Activity: 9.23%
SW780 [16]
  Activity: inactive
SW780 [17]
  Activity: 4.77%
SW780 [18]
  Activity: Active
SW780 [19]
  Activity: Active
SW780 [20]
  Activity: Active
T-24 [21]
  inhibition at 1 µM: 91.7%
SW780 [22]
  Activity: 5.01%
SW780 [23]
  viability at 0.2 µM: 87.6%
SW780 [24]
  Activity: inactive
SW780 [25]
  Activity: Active
[26]
  Activity: Non-Toxic
SW780 [27]
  Activity: Active
SW780 [28]
  Activity: Active
Heat shock protein HSP90 [29]
  IC50: 69 nM
[30]
  IC50: 29 nM
SW780 [31]
  Activity: Active
SW780 [32]
  inhibition at 1 µM: 93.8%
SW780 [33]
  Activity: 4.38%
SW780 [34]
  IC50: 160 nM
[35]
  inhibition: 83.1%
SW780 [36]
  viability at 0.5 µM: 83.5%
J82 [37]
  IC50: 360 nM
SW780 [38]
  viability at 0.5 µM: < 40%
SW780 [39]
  Activity: 3.29%
J82 [40]
  Activity: Active
SW780 [41]
  Activity: Active
Heat shock protein HSP90 [42]
  inhibition: 83.3%
